Earlier results on 3 compounds are cited in article PMC9290462 (British Journal of Clinical Pharmacology, 2020).

In data set [1] the test system is patients with moderate‐to‐severe SLE.

With `Cc1c(-c2c(F)cc(C(N)=O)c3[nH]c4c(c23)CC[C@H](C(C)(C)O)C4)cccc1-n1c(=O)c2cccc(F)c2n(C)c1=O` [BMS‐986142], the “alanine aminotransferase, aspartate aminotransferase and lipase” value is listed as “associated with increases”. Turning to `C=CC(=O)N1CCC(CNc2ncnc(N)c2-c2ccc(Oc3ccccc3)cc2)CC1` [Evobrutinib, evobrutinib], the “alanine aminotransferase, aspartate aminotransferase and lipase” value was “associated with increases”. As for `C[C@H]1CN(C2COC2)CCN1c1ccc(Nc2cc(-c3ccnc(N4CCn5c(cc6c5CC(C)(C)C6)C4=O)c3CO)cn(C)c2=O)nc1` [fenebrutinib], in the data set with healthy volunteers, the bleeding events entry was “no reported bleeding events” and the tolerability result is recorded as “well tolerated”. Moreover, the primary efficacy endpoint entry in data set [1] is reported as “failed to meet its primary efficacy endpoint”.
